Results on 16 compounds are retold here after PubChem BioAssay AID328 (DTP/NCI, 2004).

Where “and” joins values, the source holds several entries; their conditions need not be identical. Identical values can stand only once. Inconclusive results and toxic doses are left out.

The subject of the test is BDF1 mice, P388 leukemia ip, median survival T/C. Nature of the test: NCI In Vivo Anticancer Drug Screen. Data for tumor model P388 Leukemia (intraperitoneal) in B6D2F1 (BDF1) mice. The conditions noted are these: endpoint: median survival time, higher = longer survival. The gist of the method:
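Survival ratio, drug arm over vehicle arm, in mice with a transplanted tumour.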

Setting [1] is: dose: 100.0 mg/kg/injection, schedule: Q01DX009 (ip), vehicle: Klucel (hydroxypropylcellulose) (HPC).
Setting [2] is: dose: 200.0 mg/kg/injection, schedule: Q01DX009 (ip), vehicle: Klucel (hydroxypropylcellulose) (HPC).
[3] abbreviates: dose: 400.0 mg/kg/injection, schedule: Q01DX009 (ip), vehicle: Klucel (hydroxypropylcellulose) (HPC).
The mark [4] stands for this setting: dose: 100.0 mg/kg/injection, schedule: Q01DX009 (ip), vehicle: saline with Tween-80.
The mark [5] stands for this setting: dose: 100.0 mg/kg/injection, schedule: Q04DX003 (ip), vehicle: saline with Tween-80.
[6] abbreviates: dose: 200.0 mg/kg/injection, schedule: Q01DX009 (ip), vehicle: saline with Tween-80.
The mark [7] stands for this setting: dose: 200.0 mg/kg/injection, schedule: Q04DX003 (ip), vehicle: saline with Tween-80.
The mark [8] stands for this setting: dose: 400.0 mg/kg/injection, schedule: Q04DX003 (ip), vehicle: saline with Tween-80.
Where [9] appears, read: dose: 50.0 mg/kg/injection, schedule: Q01DX009 (ip), vehicle: saline with Tween-80.

Take `Cc1cc2nc(SCC(=O)O)[nH]c2cc1C`: the T/C runs as follows: (dose: 100.0 mg/kg/injection, schedule: Q01DX009 (ip), vehicle: gum acacia) 107 % of control; (dose: 100.0 mg/kg/injection, schedule: Q04DX003 (ip), vehicle: gum acacia) 103 % of control; (dose: 200.0 mg/kg/injection, schedule: Q01DX009 (ip), vehicle: gum acacia) 100 % of control; (dose: 200.0 mg/kg/injection, schedule: Q04DX003 (ip), vehicle: gum acacia) 107 % of control; (dose: 400.0 mg/kg/injection, schedule: Q01DX009 (ip), vehicle: gum acacia) 96 % of control; (dose: 400.0 mg/kg/injection, schedule: Q04DX003 (ip), vehicle: gum acacia) 107 % of control.

In the case of `O=C1CCC(=O)C12CCNCC2`, the T/C runs as follows: (dose: 100.0 mg/kg/injection, schedule: Q04DX003 (ip), vehicle: saline) 100 % of control; (dose: 200.0 mg/kg/injection, schedule: Q04DX003 (ip), vehicle: saline) 100 % of control; (dose: 400.0 mg/kg/injection, schedule: Q04DX003 (ip), vehicle: saline) 109 % of control.

In the case of `CCCCSCC(N)C(=O)O` (stereo unspecified), the T/C was 116 % of control under setting [1]; 104 % of control (dose: 100.0 mg/kg/injection, schedule: Q04DX003 (ip), vehicle: Klucel (hydroxypropylcellulose) (HPC)); 121 % of control under setting [2]; 104 % of control (dose: 200.0 mg/kg/injection, schedule: Q04DX003 (ip), vehicle: Klucel (hydroxypropylcellulose) (HPC)); 111 % of control under setting [3]; 95 % of control (dose: 400.0 mg/kg/injection, schedule: Q04DX003 (ip), vehicle: Klucel (hydroxypropylcellulose) (HPC)).

With `O=C1c2ccccc2C(=O)N1CCc1ccccn1`, the T/C (dose: 50.0 mg/kg/injection, schedule: Q04DX003 (ip), vehicle: saline with Tween-80) was 100 % of control; the T/C under setting [4] is 100 % of control; the T/C under setting [5] is 95 % of control and 111 % of control; the T/C under setting [6] is 95 % of control; the T/C under setting [7] was 100 % of control and 111 % of control; the T/C under setting [8] was 88 % of control.

Turning to `Cc1c2oc3c(C)c([N+](=O)[O-])cc(C(=O)NC4C(=O)NC(C(C)C)C(=O)N5CCCC5C(=O)N(C)CC(=O)N(C)C(C(C)C)C(=O)OC4C)c3nc-2c(C(=O)NC2C(=O)NC(C(C)C)C(=O)N3CCCC3C(=O)N(C)CC(=O)N(C)C(C(C)C)C(=O)OC2C)c(N)c1=O` (stereo unspecified), the T/C was 153 % of control (dose: 150.0 micrograms/kg/injection, schedule: Q01DX009 (ip), vehicle: saline + alcohol); 110 % of control (dose: 450.0 micrograms/kg/injection, schedule: Q04DX003 (ip), vehicle: saline + alcohol); 108 % of control (dose: 600.0 micrograms/kg/injection, schedule: Q04DX003 (ip), vehicle: saline + alcohol).

For the compound `Cn1nnnc1[N-]Cc1ccccc1.[Au+].c1ccc([PH+](c2ccccc2)c2ccccc2)cc1`, the T/C was 111 % of control (dose: 12.5 mg/kg/injection, schedule: Q01DX001 (ip), vehicle: saline with Tween-80); 111 % of control (dose: 25.0 mg/kg/injection, schedule: Q01DX001 (ip), vehicle: saline with Tween-80); 123 % of control (dose: 50.0 mg/kg/injection, schedule: Q01DX001 (ip), vehicle: saline with Tween-80).

Turning to `CC(=O)Nc1ccc(C=Nc2ccc3c(c2)Cc2ccccc2-3)cc1`, the T/C is, setting by setting: under setting [1], 109 % of control; under setting [2], 118 % of control; under setting [3], 118 % of control.

Turning to `N#CCCCn1nnc(-c2ccccc2)n1`, the T/C was 100 % of control under setting [9] and 108 % of control under setting [4].

With `C[C@]12CCCC[C@@H]1CC[C@@H]1[C@@H]2[C@@H](O)C[C@@]2(C)[C@H]1CC[C@]2(C)O`, the T/C is 104 % of control under setting [9], 95 % of control under setting [4] and 100 % of control under setting [6].

Take `CCN(CC)CCCNc1c(OC)cc(C)c2sc3ccccc3c(=O)c12`: the T/C runs as follows: (dose: 12.5 mg/kg/injection, schedule: Q01DX009 (ip), vehicle: saline) 93 % of control; (dose: 25.0 mg/kg/injection, schedule: Q01DX009 (ip), vehicle: saline) 108 % of control; (dose: 50.0 mg/kg/injection, schedule: Q01DX009 (ip), vehicle: saline) 112 % of control.

For the compound `Cc1cc(C)cc(NCCC#N)c1`, the T/C by setting is: (dose: 100.0 mg/kg/injection, schedule: Q01DX009 (ip), vehicle: other) 115 % of control; (dose: 200.0 mg/kg/injection, schedule: Q01DX009 (ip), vehicle: other) 115 % of control; (dose: 400.0 mg/kg/injection, schedule: Q01DX009 (ip), vehicle: other) 105 % of control.

Take `COC1C(CNC23CC4CC(CC(C4)C2)C3)OC2OC(C)(C)OC21` (stereo unspecified): the T/C is 101 % of control (dose: 25.0 mg/kg/injection, schedule: Q01DX005 (ip), vehicle: saline with Tween-80); 100 % of control and 113 % of control (dose: 50.0 mg/kg/injection, schedule: Q01DX005 (ip), vehicle: saline with Tween-80); 99 % of control and 121 % of control (dose: 100.0 mg/kg/injection, schedule: Q01DX005 (ip), vehicle: saline with Tween-80); 105 % of control and 115 % of control (dose: 200.0 mg/kg/injection, schedule: Q01DX005 (ip), vehicle: saline with Tween-80).

`COc1ccc(-n2c(=O)c(N=Nc3ccccc3)c(O)n(-c3ccc(C)cc3)c2=S)cc1`: the T/C was 90 % of control (dose: 50.0 mg/kg/injection, schedule: Q01DX001 (ip), vehicle: saline sonified); 100 % of control (dose: 100.0 mg/kg/injection, schedule: Q01DX001 (ip), vehicle: saline sonified); 100 % of control (dose: 200.0 mg/kg/injection, schedule: Q01DX001 (ip), vehicle: saline sonified).

As for `CCOC(=O)CN1CCC2CC1c1c([nH]c3ccccc13)C21OCCO1` (stereo unspecified), the T/C (dose: 0.06 mg/kg/injection, schedule: Q01DX009 (ip), vehicle: saline) was 105 % of control; the T/C (dose: 0.12 mg/kg/injection, schedule: Q01DX009 (ip), vehicle: saline) was 95 % of control; the T/C (dose: 0.25 mg/kg/injection, schedule: Q01DX009 (ip), vehicle: saline) was 100 % of control; the T/C (dose: 0.5 mg/kg/injection, schedule: Q01DX009 (ip), vehicle: saline) was 105 % of control; the T/C (dose: 1.0 mg/kg/injection, schedule: Q01DX009 (ip), vehicle: saline) is 105 % of control; the T/C (dose: 2.0 mg/kg/injection, schedule: Q01DX009 (ip), vehicle: saline) is 100 % of control. The T/C by setting is: (dose: 8.0 mg/kg/injection, schedule: Q01DX009 (ip), vehicle: saline) 98 % of control; (dose: 16.0 mg/kg/injection, schedule: Q01DX009 (ip), vehicle: saline) 102 % of control; (dose: 32.0 mg/kg/injection, schedule: Q01DX009 (ip), vehicle: saline) 104 % of control.

Take `Nc1c(C(=O)O)cccc1C(=O)O`: the T/C is 104 % of control under setting [4]; 100 % of control under setting [5]; 109 % of control under setting [6]; 100 % of control under setting [7]; 113 % of control (dose: 400.0 mg/kg/injection, schedule: Q01DX009 (ip), vehicle: saline with Tween-80); 95 % of control under setting [8].

Consider `COc1cccc(CC2c3ccccc3Nc3ccccc32)c1`, for which the T/C by setting is: (dose: 100.0 mg/kg/injection, schedule: Q01DX001 (ip), vehicle: saline with Tween-80) 88 % of control; (dose: 200.0 mg/kg/injection, schedule: Q01DX001 (ip), vehicle: saline with Tween-80) 87 % of control; (dose: 400.0 mg/kg/injection, schedule: Q01DX001 (ip), vehicle: saline with Tween-80) 89 % of control.
